We go through one compound from US6537545B1, “Use of corneal hardening agents in enzymeorthokeratology” (ISTA Pharmaceuticals, Inc., priority 1998, dated 2003).

Data set [1] has as its system Dutch Belted rabbit eyes. As to the kind of experiment: Slit lamp biomicroscopy including Rose Bengal staining (Example 2). In kind it is in vivo. Here is the method:
This example further examines the safety of glyceraldehyde treatment in an animal model. The experiment described in Example 2 involved the study of six (6) pigmented Dutch Belted rabbits, two (2) in the control group and four (4) in glyceraldehyde treated experimental group. On Study Day 1, all rabbits received a thorough ophthalmic examination including slit lamp biomicroscopy and indirect ophthalmoscopy.
The slit lamp biomicroscopy was performed substantially as described in Example 1. However, Rose Bengal stain was used here applied using Rose Bengal Ophthalmic Strips (Barnes-Hind, Inc., Sunnyvale, Calif.). This procedure involved a sterile strip wetted in 0.9% sodium chloride applied to the […] and sciera of an examined rabbit. The rabbit was allowed to blink applying the stain and then the treated eye was examined. Slit lamp biomicroscopy including Rose Bengal staining was performed on Study Days 1 (baseline), 8, 9, 11, 15, 34, 45, and 63. The animals were scored and the results recorded using the criteria described in Example 1.
Following baseline examinations, the rabbits were anesthetized and received a corneal intrastromal injection of 500 IU of hyaluronidase in OD (right eye) only using the method described in Example 1.
The administration of the test agents in the form of topical eyedrops began on Study Day 8. The control animals were administered a Balanced Saline Solution (BSS) (IOLAB Corporation, Claremont, Calif.) four times a day in each eye. The experimental animals received a 3% glyceraldehyde solution. The glyceraldehyde solution was prepared under sterile conditions at Advanced Corneal Systems (Irvine, Calif.) by dissolving 18 grams of glyceraldehyde in 600 mL of 0.9% sodium chloride USP, sterile filtering, and aliquotting the 3% glyceraldehyde (w/v) solution into 10 ml droppers. The experimental rabbits received one drop of glyceraldehyde solution four times a day using the technique described in Example 1. The rabbits received topical drops for a total of 63 days.

Data set [2] relates to cornea. As to the kind of experiment: Corneal elasticity, recovery from indentation by spherical glass indentor (Example 7). The data set is classed as in vivo, human. Here is the method: A precision spherical glass indentor was used to contact the corneal surface of subjects treated with the methods of the present invention to measure changes in corneal elasticity. The method used involved the application of the indentor, in the form of a small spherical ball to gently deflect into a test cornea to establish an initial deflection value. Measurements were taken by using an interferometer to view the deflection. Following this application, the relaxation period was measured by observing the change in the impression made by the indentor.
The indentation range of movement was characterized using a precision linear variable differential transducer (LVDT) device that measured the linear travel of a stage carrying the indentor probe. The average travel distance of the probe was established at approximately 700 micrometers. The contact depth of the indentor probe was measured by evaluating the corneal surface immediately after indentation and measuring the local height values caused by the probe contact. This value was measured to range from 266 to 300 micrometers.
A digital timer was used to mark the beginning and ending times during observation. Changes in the impression were readily observed during this period. The final end point was considered to be when the local fringe disturbance was recovered blending with the undisturbed neighboring fringes. […] However, given the time scales involved, the value of this error is considered to be small.
The method of inducing corneal inflection involved first contacting the test corneal with the indentor. After the initial contact with the cornea was established, the probe was moved forward into the cornea to a predetermined distance. Seven hundred microns was used to achieve adequate deflection. Topography was taken immediately after the deflection to record the impression made in the cornea. Observations of the cornea were then made at one (1) minute intervals to note the change in the impression made. […] Another topography was done after five (5) minutes to record the final condition of the impression. […]

Data set [3] deals with eyes of non-sighted human patients. The data set is described as follows: Safety of non-enzymatic corneaplasty and topical 3% glyceraldehyde in five non-sighted human patients (Example 5). The data set is classed as in vivo. The note with it: lenses 7 days, then 3% glyceraldehyde plus lenses 28 days, only minor incidents of SPK. Here is the method:
In this study five non-sighted patients with good corneas were treated with contact lenses and a 3% glyceraldehyde solution to determine the safety of this procedure. Here, the patients were fitted with and wore contact lenses for seven (7) days. Following this period a 3% glyceraldehyde solution (described above) was applied to the eyes and the contact lens wear continued for twenty-eight (28) days. After this period both the contact lens wear and the glyceraldehyde treatment ceased.
The patients were individually examined for the effects of the treatments following removal of the lenses and cessation of the glyceraldehyde treatment. The first examination was on the last day of treatment, and five (5) subsequent examinations were administered over a one month period.

Structures are written as SMILES.

Take `O=CC(O)CO` (stereo not drawn) [glyceraldehyde]: the “day by which aqueous cell/flare was absent” value in data set [1] (glyceraldehyde treated cohort had cell and flare at baseline) is no more than 14 days. Further, the “changes to the structure of the eyes as compared to controls” value in data set [1] (rabbits, 3% glyceraldehyde 1 drop four times a day, 63 days, 500 IU hyaluronidase in right eye only) was “no significant changes”. The “effect on resolution of baseline aqueous cell and flare” value in data set [1] (rabbits, 3% glyceraldehyde drops four times a day) is “did not appear to impair the resolution of the cell and flare”. Also, in data set [2] (after about two weeks of glyceraldehyde solution drops), the “time for cornea to recover from indentation” value was in the range of 20 to 30 s. Moreover, the “change in corneal elasticity after treatment” value in data set [2] (glyceraldehyde solution drops, from more rapid indentation recovery) is reported as “more elastic”. Further, in data set [3], the “corneal findings in all patients” value is listed as “Normal corneas”.
